Experimental data as given in US20260297105A1, “RAF-MEK PROTEIN COMPLEX MODULATORS AND METHODS OF USE THEREOF” (GANDEEVA THERAPEUTICS, INC., priority 2023, published 2026).
Read-outs that look alike come from different tables or passages of the source.

How the values were obtained:
[1] = test system: NCI-H292 cells; experiment: Cell viability assay (CellTiter-Glo), NCI-H292; assay type: cell-based; settings: Homo sapiens, 72 hrs, read-out: Cell Viability Assay: IC50 Determination NCI-H292
Outline: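 Cells seeded at 2,000 per well in RPMI-1640 with 10% FBS, treated 24 h later with compound (0.1% DMSO) for 72 h. Viability read by CellTiter-Glo luminescence; IC50 from 4-parameter logistic fit of % inhibition over 3 replicate wells.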

[2] = test system: p-ERK1/2 in HCT116 cells; experiment: AlphaLISA p-ERK assay, cellular inhibition of ERK phosphorylation in HCT116 cells; assay type: cell-based; settings: Homo sapiens, HCT-116, 2 hours treatment, PMA stimulation 30 mins
Description: Cell culture: HCTI 16, HT-29, and NCI-H292 cells were acquired from American Type Culture Collection (ATCC). HCT116 and HT-29 cells were maintained in ATCC-formulated McCoy's 5a Medium Modified supplemented with 10% fetal bovine serum, NCI-H292 cells were cultured in ATCC formulated RPMI-1640 supplemented with 10% fetal bovine serum. All cells were maintained at 37° C., 5% CO2.
Efficacy of exemplary compounds in cellular inhibition of ERK phosphorylation: Phosphorylation status of ERK1/2 (p-ERK) was used as a readout for inhibition of BRAF-MEK pathway. p-ERK was detected using an immunoassay for quantitative detection of phospho-ERK 1/2 (phosphorylated on Thr202/Tyr204 in ERK1, or Thr185/Tyr187 in ERK2), such as the AlphaLISA® SureFire® Ultra™ p-ERK1/2 (Thr202/Tyr204) kit (Perkin Elmer). HCT116 cells were plated at 10,000 cells per well in 384-well TC-treated plates (Coming). Cells were plated for 24 hours, the medium was then aspirated and cells were treated with vehicle (DMSO) or test compounds (0.1% DMSO in final volume) prepared in serum free, phenol red free medium for 2 hours. Following treatment, cells were stimulated with PMA (1.25 μM/well) for 30 mins after which the medium was aspirated, and the cells were lysed for 10 mins with 1× lysis buffer supplemented with Halt Protease and Phosphatase Inhibitor Cocktail (Thermo Fisher). The lysate was transferred to a 384 well Alpha-plate (PerkinElmer) and incubated for 1 hour with acceptor bead mix followed by 1 hour incubation with donor bead mix. After incubation, the plate was read on a Cytation5 microplate reader (Agilent). % inhibition as a function of compound concentration from 3 replicate wells was fit with a 4-parameter logistic curve using GraphPad Prism or CDD Vault to derive IC50 values.
In this table, for the BRAF ADP Glo kinase assay, “A” indicates IC50 of less than 5 nM; “B” indicates IC50 of between 5 nM to 50 nM; and “C” indicates IC50 of between 50 nM to 500 nM. “D” indicates IC50 of greater than 500 nM. For the BRAF-MEK TR-FRET assay, “A” indicates EC50 of less than 50 nM; “B” indicates EC50 of between 50 nM to 200 nM; and “C” indicates EC50 of between 200 nM to 1 μM. “D′” indicates EC50 of greater than 1 μM. For the AlphaLisa P-ERK assay, “A” indicates IC50 of less than 1 nM; “B” indicates IC50 of between 1 nM to 10 nM; and “C” indicates IC50 of between 10 nM to 100 nM. “D” indicates IC50 of greater than 100 nM. For the cell viability assay, “A” indicates IC50 of less than 1 nM; “B” indicates IC50 of between 1 nM to 10 nM; and “C” indicates IC50 of between 10 nM to 100 nM. “D” indicates IC50 of greater than 100 nM.

[3] = target: T1, MEK1 (Homo sapiens, UniProt Q02750); experiment: MEK1 kinase cascade assay (ADP-Glo), inhibition of MEK1 kinase activity; assay type: biochemical
T1 construct: purchased SignalChem M02-14H
T1 sequence (Q02750 whole entry): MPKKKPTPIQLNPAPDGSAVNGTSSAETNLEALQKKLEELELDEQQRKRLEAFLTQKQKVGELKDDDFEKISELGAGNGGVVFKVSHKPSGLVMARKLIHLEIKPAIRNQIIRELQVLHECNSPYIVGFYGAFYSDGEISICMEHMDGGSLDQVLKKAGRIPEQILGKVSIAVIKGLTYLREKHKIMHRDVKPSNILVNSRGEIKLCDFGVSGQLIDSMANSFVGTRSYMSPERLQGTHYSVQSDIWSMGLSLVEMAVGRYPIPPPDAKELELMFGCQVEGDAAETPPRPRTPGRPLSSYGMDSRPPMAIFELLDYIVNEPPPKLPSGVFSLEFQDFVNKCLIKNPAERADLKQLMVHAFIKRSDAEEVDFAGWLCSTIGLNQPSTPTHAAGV
T1 sequence (P15056 445-723 partner limits assumed): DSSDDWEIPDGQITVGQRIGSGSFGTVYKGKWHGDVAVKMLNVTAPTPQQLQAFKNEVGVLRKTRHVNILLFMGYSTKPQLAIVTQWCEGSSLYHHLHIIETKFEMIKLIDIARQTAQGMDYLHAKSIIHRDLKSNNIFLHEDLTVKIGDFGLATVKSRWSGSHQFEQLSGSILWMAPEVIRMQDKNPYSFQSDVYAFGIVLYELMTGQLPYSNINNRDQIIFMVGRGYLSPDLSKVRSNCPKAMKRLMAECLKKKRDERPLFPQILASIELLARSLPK
Outline: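 Cascade format with ADP-Glo read-out: BRAF (25 nM) and compound, 1% DMSO, 20 mins at 25° C, then MEK1 6.25 nM, ERK1 0.5 μM, ATP 1 mM for 1 hr at 25° C in HEPES pH 7.5 buffer with MgCl2, CHAPS and DTT. Percent inhibition, scaled between DMSO and 1 μM Trametinib, was fit by 4-parameter logistic to give IC50 (2 replicate wells).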

[4] = test system: BRAF-MEK1; experiment: BRAF-MEK TR-FRET assay, stabilization of MEK1 and BRAF interaction; assay type: binding; settings: read-out: BRAF-MEK TR-FRET Assay (EC50, fold stabilization)
Outline: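 Read-out is fold stabilization (treated FRET ratio/DMSO, Em 665/620 nm), fit 4-parameter for EC50 from 2 replicates. Compounds sat with 4 nM GST-BRAF and 10 nM in-house His-MEK1 1 h at 25° C (Tris pH 7.5, MgCl2, 100 μM ATP), then detection antibodies 1 h.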

[5] = 25 nM BRAF, 6.25 nM MEK1, 0.5 μM ERK, 1 mM ATP, 20 min preincubation, 1 hr at 25° C., read-out: BRAF ADP Glo kinase assay V3 (IC50)
[6] = 4 nM BRAF, 10 nM MEK, 100 μM ATP, 1 hr at 25° C.

| Structure (SMILES) | IC50 [1] [nM] | IC50 [2] [nM] | IC50 [3, 5] [nM] | EC50 [4, 6] [nM] | IC50 ([3]; BRAF ADP Glo kinase assay V3 (IC50)) [nM] | EC50 ([4]; 60 min) [nM] |
| --- | --- | --- | --- | --- | --- | --- |
| CNS(=O)(=O)Nc1cccc(CN2C(=O)Oc3cc(Oc4cccnn4)c(F)cc3C23COC3)c1F [Compound 58, 6-fluoro-3-({2-fluoro-3-[(methylsulfamoyl)amino]phenyl}methyl)-7-(pyridazin-3-yloxy)-2,3-dihydrospiro[1,3-benzoxazine-4,3′-oxetan]-2-one] | < 1 | < 1 | < 5 | < 50 |  |  |
| CNS(=O)(=O)Nc1cccc(CN2C(=O)Oc3cc(Oc4cccnn4)cc(F)c3C23COC3)c1F [Compound 63] | 1 to 10 | 1 to 10 | 5 to 50 | 50 to 200 |  |  |
| CN(C)S(=O)(=O)Nc1cccc(CN2C(=O)Oc3cc(Oc4cccnn4)ccc3C23COC3)c1F [Compound 64, 3-({3-[(dimethylsulfamoyl)amino]-2-fluorophenyl}methyl)-7-(pyridazin-3-yloxy)-2,3-dihydrospiro[1,3-benzoxazine-4,3′-oxetan]-2-one] | 1 to 10 | 1 to 10 | < 5 | 50 to 200 |  |  |
| CNS(=O)(=O)Nc1nccc(CN2C(=O)Oc3cc(Oc4ncco4)ccc3C23COC3)c1F [Compound 68, 3-({3-fluoro-2-[(methylsulfamoyl)amino]pyridin-4-yl}methyl)-7-(1,3-oxazol-2-yloxy)-2,3-dihydrospiro[1,3-benzoxazine-4,3′-oxetan]-2-one] | 1 to 10 | 10 to 100 | 5 to 50 | 50 to 200 |  |  |
| CNS(=O)(=O)Nc1cccc(CN2Cc3ccc(Oc4ncco4)cc3OC2=O)c1F [Compound 80, 3-({2-fluoro-3-[(methylsulfamoyl)amino]phenyl}methyl)-7-(1,3-oxazol-2-yloxy)-3,4-dihydro-2H-1,3-benzoxazin-2-one] | 1 to 10 | 10 to 100 | 5 to 50 | 200 to 1000 |  |  |
| CNS(=O)(=O)Nc1cccc(CN2C(=O)Oc3cc(Oc4cccnn4)ccc3C23COC3)c1F [Compound 81, 3-({2-fluoro-3-[(methylsulfamoyl)amino]phenyl}methyl)-7-(pyridazin-3-yloxy)-2,3-dihydrospiro[1,3-benzoxazine-4,3′-oxetan]-2-one] | 1 to 10 | 1 to 10 | < 5 | 50 to 200 |  |  |
| CNS(=O)(=O)Nc1cccc(CN2C(=O)Oc3c(ccc(Oc4ncco4)c3F)C23COC3)c1F [Compound 82] | 1 to 10 | 1 to 10 | < 5 | 200 to 1000 |  |  |
| CNS(=O)(=O)Nc1cccc(CN2C(=O)Oc3cc(Oc4ncco4)ccc3C23COC3)c1F [Compound 95, 3-({2-fluoro-3-[(methylsulfamoyl)amino]phenyl}methyl)-7-(1,3-oxazol-2-yloxy)-2,3-dihydrospiro[1,3-benzoxazine-4,3′-oxetan]-2-one] | 1 to 10 | 1 to 10 | < 5 | 50 to 200 |  |  |
| CNS(=O)(=O)Nc1cccc(CN2Cc3ccc(Oc4cccnn4)cc3OC2=O)c1F [Compound 105, 3-({2-fluoro-3-[(methylsulfamoyl)amino]phenyl}methyl)-7-(pyridazin-3-yloxy)-3,4-dihydro-2H-1,3-benzoxazin-2-one] | 1 to 10 | 1 to 10 | < 5 | < 50 |  |  |
| CNS(=O)(=O)Nc1cccc(CN2C(=O)Oc3cc(OC(=O)N(C)C)ccc3C23COC3)c1F [Compound 115, 3-({2-fluoro-3-[(methylsulfamoyl)amino]phenyl}methyl)-2-oxo-2,3-dihydrospiro[1,3-benzoxazine-4,3′-oxetan]-7-yl N,N-dimethylcarbamate] | < 1 | 1 to 10 | < 5 | 50 to 200 |  |  |
| CNS(=O)(=O)Nc1cccc(CN2Cc3c(F)cc(Oc4ncccn4)cc3OC2=O)c1F [Compound 117] | 10 to 100 | 1 to 10 | 5 to 50 | 200 to 1000 |  |  |
| CNS(=O)(=O)Nc1cccc(CN2Cc3c(F)cc(OC(=O)N(C)C)cc3OC2=O)c1F [Compound 118, 5-fluoro-3-(2-fluoro-3-((N-methylsulfamoyl)amino)benzyl)-2-oxo-3,4-dihydro-2H-benzo[e][1,3]oxazin-7-yl dimethylcarbamate] | < 1 | 1 to 10 | < 5 | 50 to 200 |  |  |
| CNS(=O)(=O)Nc1cccc(CN2Cc3ccc(OC(=O)N(C)C)c(F)c3OC2=O)c1F [Compound 131, 8-fluoro-3-(2-fluoro-3-((N-methylsulfamoyl)amino)benzyl)-2-oxo-3,4-dihydro-2H-benzo[e][1,3]oxazin-7-yl dimethylcarbamate] | 1 to 10 | 1 to 10 | < 5 | 50 to 200 |  |  |
| CNS(=O)(=O)Nc1cccc(CN2Cc3cc(Cl)c(OC(=O)N(C)C)cc3OC2=O)c1F [Compound 149, 6-chloro-3-(2-fluoro-3-((N-methylsulfamoyl)amino)benzyl)-2-oxo-3,4-dihydro-2H-benzo[e][1,3]oxazin-7-yl dimethylcarbamate] | 1 to 10 | 1 to 10 |  |  | < 5 | 50 to 200 |
| CNS(=O)(=O)Nc1nccc(CN2Cc3ccc(Oc4nccnn4)cc3OC2=O)c1F [Compound 164, 3-{[3-fluoro-2-(methylaminosulfonylamino)-4-pyridyl]methyl}-7-(1,2,4-triazin-3-yloxy)-3,4-dihydro-2H-1,3-benzoxazin-2-one] | < 1 | 10 to 100 | 5 to 50 | < 50 |  |  |
